Results on six compounds are retold here after US20210196654A1, “METHOD OF TREATING CONDITIONS” (Clexio Biosciences Ltd., priority 2019, published 2021).

Read-outs that look alike come from different tables or passages of the source.

A short description of data set [1]: Single dose crossover study in healthy volunteers, pharmacokinetics. As to conditions: both, human, plasma; for AUC(0-inf): AUC0-inf; for AUC(0-inf) / AUC(0-t) / Cmax: geometric mean; for AUC(0-t): AUC0-t; for Cmax: 15 subjects; for half-life: t1/2, geometric mean; for Tmax: median. From the text:
A randomized, open-label 4-way crossover study in 16 healthy male and female subjects was held wherein said subjects were placed in a randomly assigned order and administered esketamine. Each subject was assigned to 1 of 4 treatment sequences according to a randomization code such that 4 subjects were assigned to each treatment sequence. There was a wash-out period of at least 7 days between dosing periods with doses consisting of either oral or intravenous esketamine hydrochloride. The study consisted of an eligibility screening period of 28 days, 4 study periods involving administration of a single dose of esketamine hydrochloride followed by safety assessments with blood sampling for PK purposes up to 72 hours after study drug administration, discharge at 72 hours after study drug administration and a follow-up visit 7-14 days after the last PK blood sample was taken on Day 4.

Data set [2] concerns animal models of depression. As to conditions: cited from earlier work.
Data set [3] concerns human peripheral blood lymphocytes (HPBL). The method, then:
The clastogenic potential of (S)-norketamine was evaluated in the in vitro mammalian chromosome aberration test using human peripheral blood lymphocytes (HPBL) in both the absence and presence of an induced metabolic activation system (the 9000 g supernatant [S9] microsomal fraction of liver homogenate from rats exposed to phenobarbital/5,6-benzoflavone).
The study was conducted in 2 phases, with a preliminary toxicity test used to determine the appropriate concentrations for the definitive chromosomal aberration assay. Water was used as a negative (vehicle) control. In both phases, the cells were treated for 3 and 21 hours in the absence of S9 mix and for 3 hours in the presence of S9 mix. The mitotic index was assessed for all cultures to determine cytotoxicity. Ten concentrations, ranging from […], were evaluated in the preliminary toxicity test.

The test system is the same in data set [4]. The method, then:
The clastogenic potential of esketamine was evaluated in the in vitro mammalian chromosome aberration test using human peripheral blood lymphocytes (HPBL) in both the absence and presence of an induced metabolic activation system (the 9000 g supernatant [S9] microsomal fraction of liver homogenate from rats exposed to Aroclor-1254).
The study was conducted in 2 phases, with a preliminary toxicity test used to determine the appropriate concentrations for the definitive chromosomal aberration assay. Water was used as a negative (vehicle) control. Toxicity (defined as >45% reduction in MI relative to the vehicle control) was evaluated at 9 concentrations, ranging from 0.0238 to 238 μg/ml, after exposure of HPBL to esketamine for 20 hours in the absence of S9 activation, or for 4 hours, either in the presence or absence of S9 activation, followed by a 16-hour recovery period.
The definitive chromosome aberration assay evaluated HPBL cells after exposure to esketamine for 20 hours in the absence of S9 activation, or for 4 hours, either in the presence of absence of S9 activation, followed by a 16-hour recovery. Positive controls for chromosomal aberrations in non-activated and S9-activated evaluations, respectively, consisted of mitomycin C (MMC, 0.6 and 0.3 μg/mL for the 4- and 20-hour exposures, respectively) and cyclophosphamide (CP, 2.5, 5, and 7.5 μg/mL). […] Initially, the doses selected for evaluation of chromosomal aberrations were 60, 120, and 238 μg/mL for the non-activated 4- and 20-hour treatment conditions; and 30, 60, and 200 μg/mL for the S9-activated 4-hour treatment condition.
This is another data set of the same source.

Another data set concerns bipolar disorder. As to conditions: intravenous; cited from earlier work.
Data set [5] deals with Generalized Anxiety and Social Anxiety Disorder patients. As to conditions: treatment-refractory patients; cited from earlier work.
The subject of data set [6] is Parkinson's disease sufferers. As to conditions: cited from earlier work.
The next data set deals with chronic pain. As to conditions: oral; cited from earlier work.
The conditions of data set [7]: Yanagihara et al (2003); cited from earlier work.
[8] abbreviates: iv, 0.3 mg/kg, plasma analyte after single dose esketamine 0.3 mg/kg iv.
The mark [9] stands for this setting: po, 20 mg, plasma analyte after single dose esketamine 20 mg oral solution.
Setting [10] is: po, 20 mg, plasma analyte after single dose esketamine 20 mg oral tablet.
[11] abbreviates: po, 100 mg, plasma analyte after single dose esketamine 100 mg oral tablet.
Where [12] appears, read: S9-activated system, positive control.

In [1] (setting [8]), `N[C@]1(c2ccccc2Cl)CCC[C@H](O)C1=O` [(2S,6S)-OH-Norketamine, (2S,6S)-2-Amino-2-(2-chlorophenyl)-6-hydroxycyclohexanone] had an AUC(0-inf) of 390 ng·h/mL, an AUC(0-t) of 376 ng·h/mL, a Cmax of 24.8 ng/mL and a half-life of 10.7 h. For the same compound, the Tmax in data set [1] (setting [8]) worked out at 3 h. Also, in data set [1] (setting [9]), the total exposure AUC(0-inf) came out at 378 ng·h/mL, the AUC(0-t) was found to be 366 ng·h/mL, the highest level (Cmax) was 46.5 ng/mL and the half-life is 7.83 h. Further, in data set [1] (setting [9]), the Tmax worked out at 1 h. In data set [1] (setting [10]), this compound had an AUC(0-inf) of 401 ng·h/mL, an AUC(0-t) of 390 ng·h/mL, a Cmax of 45.8 ng/mL and a half-life of 7.77 h. For the same compound, in [1] (setting [10]), the Tmax was determined as 1.5 h. In [1] (setting [11]), the AUC(0-inf) came to 1960 ng·h/mL, the AUC(0-t) stood at 1950 ng·h/mL, the Cmax was 189 ng/mL and the half-life was 8.92 h. For the same compound, in [1] (setting [11]), the Tmax worked out at 2 h.

Take `CN[C@@]1(c2ccccc2Cl)CCCCC1=O` [(R)-ketamine, (2R)-2-(2-Chlorophenyl)-2-(methylamino) cyclohexanone]: the “antidepressant effects compared with esketamine” value in [2] is “greater potency and longer-lasting antidepressant effects than esketamine”.

As for `N[C@]1(c2ccccc2Cl)CCCCC1=O` [(S)-norketamine, (2S)-2-(2-Chlorophenyl)-2-(amino) cyclohexanone], in data set [3], the “Toxicity (mitotic index), preliminary toxicity test” value is reported as “not observed at any dose”; the “clastogenicity, conclusion” value was “non-clastogenic”; the “proportion of metaphase figures containing chromosomal aberrations vs vehicle control” value is listed as “no statistically significant increases”. The “proportion of polyploid or endoreduplicated metaphase cells vs vehicle control” value in data set [3] (any treatment condition) is “No statistically significant increases”. In data set [1] (setting [8]), the AUC(0-inf) worked out at 441 ng·h/mL, the AUC(0-t) worked out at 426 ng·h/mL, the concentration peaked (Cmax) at 42.2 ng/mL and the half-life is 11.3 h. Moreover, the Tmax in data set [1] (setting [8]) is 1.25 h. For the same compound, in data set [1] (setting [9]), the AUC(0-inf) is 417 ng·h/mL, the AUC(0-t) is 405 ng·h/mL, the Cmax was determined as 99.8 ng/mL and the half-life was 8.88 h. The Tmax in data set [1] (setting [9]) was 0.75 h. Moreover, in data set [1] (setting [10]), the AUC(0-inf) came to 429 ng·h/mL, the AUC(0-t) amounted to 418 ng·h/mL, the Cmax is 89.7 ng/mL and the half-life was 8.75 h. Further, the Tmax in [1] (setting [10]) is 1 h. In data set [1] (setting [11]), this compound gave an AUC(0-inf) of 2280 ng·h/mL, an AUC(0-t) of 2270 ng·h/mL, a Cmax of 352 ng/mL and a half-life of 9.27 h. The Tmax in data set [1] (setting [11]) stood at 1 h.

As for `O=P1(N(CCCl)CCCl)NCCCO1` (centres unmarked) [CP, cyclophosphamide], in data set [4] (setting [12]), the “cells with structural aberrations” value stood at 10.7% and the “mean MI value” is on record as 6.2%. Further, the “proportion of aberrant cells” value in [3] (positive control compounds) is given as “statistically significant increases”.

Consider `CO[C@@]12[C@H](COC(N)=O)C3=C(C(=O)C(C)=C(N)C3=O)N1C[C@@H]1N[C@@H]12` [MMC, mitomycin C], for which the “cells with structural chromosomal aberrations” value in data set [4] stood at 13.3%. Further, the “mean MI value” in data set [4] (non-activated systems, positive control) was found to be 9%. Besides, the “proportion of aberrant cells” value in data set [3] is “statistically significant increases”.

Regarding `CNC1(c2ccccc2Cl)CCCCC1=O` (stereo not drawn) [ketamine, dl 2-(2-chlorophenyl)-2(methylamino) cyclohexanone], in the data set on bipolar disorder, the “effect in bipolar disorder” value is “robust and rapid effect”. For the same compound, in [5], the anxiety ratings entry is “improvement in anxiety ratings within an hour of ketamine dosing which persisted for up to a week”. Also, in data set [6], the levodopa induced dyskinesia entry was “could reduce levodopa induced dyskinesia”. Moreover, the chronic pain result with chronic pain was “could reduce chronic pain”. In addition, the nasal bioavailability in data set [7] was 45%.
